In a melting point compilation (Tetko et al.; mined from patent text by program, amines drawn as free bases though some values may be those of a salt) one finds melting point data, which are given here for 86 molecules.

Broadly, the melting point is the temperature, or range, at which the solid turns liquid. For `CCOC(=O)CC(=O)c1cc(F)c(N2CCC(N)C2)nc1Nc1ccc(F)cc1F` (stereo unspecified), the melting point was in the range of 140 to 142 °C.
In the case of `N#CN=C(NCc1ccccn1)Nc1cccc(-c2cccc(S(=O)(=O)NC(CC(=O)O)c3ccccc3)c2)c1` (stereo unspecified) it was 90 °C.
In the case of `O=C(O)c1ccccc1Oc1cc(Cl)c(Cl)cc1NS(=O)(=O)c1cc(C(F)(F)F)cc(C(F)(F)F)c1` it was 139 to 140 °C; in that of `CCc1cn(C2CC(O)C(CNC(=O)Cc3ccccc3N)O2)c(=O)[nH]c1=O` (stereo unspecified), 195 to 196 °C; in that of `CC(=O)SCCC(=O)N1N=C(c2ccc(S(N)(=O)=O)cc2)CC1C(=O)O` (stereo unspecified), 183 to 185 °C.
Under `Clc1nsnc1-c1ccccc1` stands 33 °C; under `CS(=O)(=O)N1CC(=O)NC(=O)N1Cc1ccc(Cl)cc1`, 145 °C; under `Cc1c(CNCc2ccccc2)[nH]c(=O)c2c1ccc1nc(Nc3c(Cl)cccc3Cl)n(C)c12`, 231 to 234 °C.
Turning to `CC(C)n1cc(-c2ccc3nnn(Cc4ccc5ncccc5c4)c3n2)cn1`, the melting point was in the range of 126 to 128 °C.
In the case of `CCCCOCCOc1ccc(-c2ccc3c(c2)C=C(C(=O)Nc2ccc(C(O)c4cc(C)ccn4)cc2)CCN3C(=O)C(F)(F)F)cc1` (stereo unspecified) it was 101 to 105 °C; in that of `CC(C)(C)NC(=O)[C@@H]1C[C@H](Sc2ccccc2)CN1C(=O)OC(C)(C)C`, 119 to 121 °C.
In the case of `CC(=O)OC1c2ccccc2C(=O)N1CCO[N+](=O)[O-]` (stereo unspecified) it was 74 to 75 °C.
Under `CC(=O)Nc1cccc2c(Br)ccc(C)c12` stands 227 to 229 °C; under `CCCCCCCC(=O)NCCCCCOS(C)(=O)=O`, 67 to 68 °C; under `Cc1c(Nc2ccc(Br)cc2C(=O)O)cccc1C(F)(F)F`, 223 to 225 °C.
`CCCn1nc2c(N)nc3ccccc3c2c1CC1(O)CCOCC1`: the melting point lay in the range of 209 to 211 °C.
In the case of `Nc1c([N+](=O)[O-])sc2cccc(Cl)c12` it was 174 to 175 °C.
In the case of `BrCc1cccc(OCCCCOc2ccccc2)c1` it was 47 to 49 °C; in that of `CCSc1nc(NC(C)=O)ccc1[N+](=O)[O-]`, 168 °C.
In the case of `CN(C(=O)c1ccccc1)[Si](C)(C)N(C)C(=O)c1ccccc1` it was 54 to 56 °C.
Turning to `COc1ccccc1C1(O)C(O)CC(c2ccccc2)(c2ccccc2)C2CN(C(=O)Cc3ccccc3OCc3ccccc3)CC21` (stereo unspecified), the melting point was 158 °C.
Under `CC(=O)N1C(=O)OC[C@H]1c1ccccc1` stands 94 °C; under `COC(=O)c1ccc2cccc(C#N)c2c1`, 178 to 182 °C.
For `C=CCOC(=O)C1=C2c3ccccc3CC[C@@H]2[C@@H]2[C@@H]([C@@H](C)O)C(=O)N12`, the melting point lay within 133 to 134 °C.
The molecule `OCc1cccc(C=CC2N=Cc3cc(Cl)ccc3S2)c1` (stereo unspecified) showed a melting point of 143 to 145 °C.
Under `Cn1c2cccc(Br)c2c2c(CC(=O)N3CCCC3)nn(-c3ccccc3)c(=O)c21` stands 209 to 210 °C.
Under `CC1(N2C(=O)c3cccc(NCc4cccc(Cl)c4)c3C2=O)CCC(=O)NC1=O` (stereo unspecified) stands 199 to 201 °C; under `Cc1cccc(-n2nc3c(c2-c2cc4cnccc4s2)CCC3)n1`, 146 to 148 °C.
In the case of `COC(=O)CCNC(=O)C(=Cc1ccccc1)CSC(C)=O` it was 54 °C; in that of `O=C(C1CCN(c2ccncn2)CC1)N1CCN(S(=O)(=O)c2ccc3cc(Cl)ccc3c2)CC1`, 218 to 219 °C.
For the molecule `Nc1cccc(C2CN3CCSC3=N2)c1` (stereo unspecified), the melting point was in the range of 177 to 179 °C.
In turn, `Cc1oc(-c2ccccc2)nc1CCOc1ccc(C[C@H](NC(=O)C=Cc2cccc(Cl)c2)C(=O)O)cc1` gave a melting point of 204 to 206 °C.
Under `CCCCCCCCCCCc1nnc2n1-c1sc(CC)cc1C(c1ccc(OC)cc1)OC2` (stereo unspecified) stands 91 to 93 °C; under `Cc1cccc(C(C)C)c1NC(=O)NC1(c2cccs2)CCCCC1`, 230 to 232 °C.
Take `CC(C)(C)OC(=O)[C@@H]1CS[C@H](c2ccccc2)N1C(=O)CNC(=O)Nc1cccc(CC(=O)O)c1`: the melting point stood at 140 °C.
In the case of `CC(=O)OC1C(CO)OC(n2c(=O)sc3cnc(N)nc32)C1OC(C)=O` (stereo unspecified) it was 109 to 111 °C; in that of `CCOC(=O)COCCc1cc2cc(Cl)ccc2n1S(=O)(=O)c1ccccc1`, 60 to 62 °C.
In the case of `COC(=O)c1ccc(NC(C)=O)c(NC(=O)COC(C)=O)c1` it was 182 to 186 °C; in that of `COc1cc2c(c(OC)c1OC)-c1ccc([N+](=O)[O-])cc1COC2`, 161 °C; in that of `CSc1nc(-c2ccc(N)cc2)c[nH]1`, 85 to 86 °C.
Under `NC(=O)CNC(=O)c1ccnc(-c2cccc3cc(Cc4cccc(C(F)(F)F)c4)sc23)c1F` stands 169 to 170 °C; under `OCC1Cc2c(ccc3c(-c4ccccc4)noc23)O1` (stereo unspecified), 107 to 109 °C; under `CN(C(=O)OC(C)(C)C)[C@H]1CC[C@H](/C=C/CCl)CC1`, 42.5 to 43.9 °C.
In the case of `Cc1cccc2c1N(CC(=O)N1CC3CCC(CC3)C1)C(=O)C(NC(=O)Nc1cccc(CO)c1)N=C2c1ccccc1F` (stereo unspecified), the melting point lay in the range of 188 to 202 °C.
In the case of `C=C1C(c2ccccc2)=C(c2ccc(S(C)(=O)=O)cc2)C1(Cl)Cl` it was 124 to 126 °C; in that of `COc1c(OC)c(-c2ccccc2)n(-c2ccc(C)cc2)c1-c1ccccc1`, 192 to 193 °C.
Under `CCN(CC)c1cc(=O)c2c(o1)c(OC)cc1ccccc12` stands 150 to 151 °C; under `COC(=O)C1=Cc2cc(Br)ccc2N(CC2(C)OCCO2)CC1`, 96 to 99 °C; under `CC(C)c1cccc(C(C)C)c1NC(=O)[C@H](C)N(C)C(=O)OC(C)(C)C`, 108 to 110 °C.
`COC(=O)C1(NC(=O)Cc2cc(-c3ccc(Cl)cc3)ccc2C)CCC(F)(F)CC1` had a melting point of 186 °C.
In the case of `CC(C)[C@H](NCc1ccc(Br)cc1)C(=O)O` it was 239 to 241 °C; in that of `CCCc1ccc(OC(C)=O)c(C2(OC(C)=O)C(=O)c3ccccc3C2=O)c1`, 108 to 111 °C.
The molecule `O=C(NC(=O)c1c(F)cccc1F)Nc1cc(Cl)c(Oc2ccc(Cl)c3ccccc23)c(Cl)c1` came in with a melting point of 237 to 239 °C.
Under `CCOC(=O)CCCCC(=O)c1c(C)n(C(=O)OC)c(=O)n1C(=O)OC` stands 74 to 76 °C; under `CC(=O)Nc1nc(N)nc(-c2ccc(S(=O)(=O)c3ccccc3)cc2)n1`, above 260 °C.
Under `COc1ccc(Cn2nnc(-c3ccc(C(F)(F)F)cc3F)c2N)cc1` stands 153 to 154 °C; under `OCC1NCc2ccsc2-n2cccc21` (stereo unspecified), 166 °C.
`CC1CCc2c(N3CCCC3)ccc3c(=O)c(C(=O)O)cn1c23` (stereo unspecified) showed a melting point of 170 to 174 °C.
Under `COC(=O)c1ccc(C=C2CCn3c2nc2cc(N)ccc2c3=O)cc1` stands 292 to 295 °C.
In the case of `Cc1c(C(=O)O)cc(Cl)c2c1C(=O)CCS2` it was 190 to 192 °C; in that of `C(=C\c1cc(/C=C/c2ccc3cc[nH]c3c2)[nH]n1)/c1ccc(N2CCCCC2)cc1`, 189 to 191 °C.
With `FC(F)c1nc2ccccc2n1-c1nc(NCc2cccnc2)nc(N2CCOCC2)n1`, the melting point lay within 160 to 161 °C.
Under `C=C(C)C(=O)O[C@H]1C[C@@H](C(=O)OC)[C@]2(C)CC[C@H]3C(=O)O[C@H](c4ccoc4)C[C@]3(C)[C@H]2C1=O` stands 196 to 199 °C; under `CCC(C(O)c1ccc(Cl)cc1)n1ncn(-c2ccc(N3CCN(c4nc5ccccc5o4)CC3)cc2)c1=O` (stereo unspecified), 221 °C; under `CN(C)c1ccc(CCc2ccc3c(=O)[nH]ncc3c2)cc1`, 257 to 259 °C.
In the case of `N#CC1CCSc2[nH]c3ccccc3c21` (stereo unspecified) it was 125 to 126 °C.
Take `CC(=O)N[C@@H](C)COC1CCN(c2nc3ccc(OCC4CC4)cc3o2)CC1`: the melting point came out at 120 °C.
In the case of `CS(=O)(=O)c1ccc(-c2cnn(CC(F)(F)F)c(=O)c2OCc2ccco2)cc1` it was 113 to 115 °C; in that of `C=CCOC(=O)c1ccc(-c2ccc3cc(C(=O)OCC)c(C45CC6CC(CC(C6)C4)C5)cc3c2OCCCCC)cc1`, 116 to 117 °C.
For the molecule `CNc1nc(S(=O)(=O)Nc2c(Cl)cccc2Cl)n[nH]1`, the melting point is 285 to 287 °C.
Under `O=C(O)c1ccc2oc3c(c(=O)c2c1)CCCC3` stands 253 to 255 °C; under `Cn1cc(Sc2ccccc2)c(=O)c(-c2cccc(C(F)(F)F)c2)c1`, 164 to 165 °C.
Under `O=C1CCC(N2Cc3c(OCc4ccccc4CN4CCOCC4)cccc3C2=O)C(=O)N1` (stereo unspecified) stands 188 to 190 °C.
With `CC(=O)NC[C@H]1CN(c2ccc(N3CCC(n4nccn4)CC3)c(F)c2)C(=O)O1`, the melting point worked out at 197 °C.
For `CCOC(=O)c1ccc2ccccc2c1O`, the melting point lay within 48.5 to 49 °C.
In the case of `COC(=O)c1ccc(C(=O)CCC(=O)c2ccc3c(c2)C(C)(C)CCC3(C)C)cc1` it was 126 to 129 °C; in that of `COc1cc(Cl)cc(Cl)c1C1=NC(C)(C)CO1`, 45 °C.
Under `Cn1cc(C2=C(c3c4n(c5ccccc35)CCN(C(=O)Oc3ccccc3)C4)C(=O)NC2=O)c2ccccc21` stands 160 to 165 °C; under `COc1ccc(-c2c(Cl)c(CN3C(=O)CCC3=O)nc3sc4c(c23)CC(C)(C)C(=O)C4(C)C)cc1`, 214 to 216 °C.
In the case of `CCOC(=O)c1sc(Cl)nc1C(F)(F)F` it was 58 to 59 °C.
For the molecule `C[C@]1(COc2ccc(N3CCC(COCc4ccc(C(F)(F)F)cc4)CC3)cc2)Cn2cc([N+](=O)[O-])nc2O1`, the melting point lay in the range of 172 to 173 °C.
Molecule `NC(=S)C(F)(F)c1ccccc1` gave a melting point of 99 to 100 °C.
In the case of `COC(=O)c1ccc(-c2nc(-c3ccc(Cl)cc3)co2)cc1` it was 183 to 184 °C; in that of `c1ccc(-c2nc(-c3ccc4cc(OCc5nnn[nH]5)ccc4c3)cs2)cc1`, 226 to 228 °C; in that of `CC(C)c1cc(NC(=O)N2CCN(c3ccnc(-c4cccc(F)c4F)n3)CC2)nnc1Cl`, 192 to 193 °C.
In the case of `CN1c2cscc2CNc2ccccc21` it was 125 to 127 °C.
